This note sets out measurements from patent US20210393565A1, “PREPARATION FOR USE TO INCREASE THE FORMATION OF ONE OR MORE SPECIALIZED PRO-RESOLVING LIPID MEDIATORS (SPM)” (Evonik Operations GmbH, priority 2018, published 2021).

Type in all cases: cell-based
Assay [1] concerns Bacillus megaterium DSM 32963 cells. Put plainly: Lipidometabolomics (UPLC-MS/MS) of culture supernatants with AvailOm, dissolved or as dispersion. As to conditions: for Extracellular concentration of PUFA oxygenation product: − bile acids, net after subtraction of cell-free control. The text has this:
(§1) Bacterial supernatant samples were subjected to lipid extraction using RP-phase solid phase extraction and subsequently analyzed by ultra performance liquid chromatography ESI tandem mass spectrometry (UPLC-MS/MS) according to a published procedure. Under these conditions approximately 40 different LM, including 5-hydroxy-eicosapentaenoic acid 5-HEPE, 8-HEPE, 11-HEPE, 12-HEPE, 15-HEPE, 18-HEPE, 5-hydroxy-eicosatetraenoic acid (5-HETE), 8-HETE, 11-HETE, 12-HETE, 15-HETE, 4-hydroxy-DHA (4-HDHA), 7-HDHA, 13-HDHA, 14-HDHA, 17-HDHA, lipoxin A4 (LXA4), LXB4, resolvin E1 (RvE1), RvE3, resolvin D1-5 (RvD1-5), AT-RvD1, RvD2, protectin D1 (PD1), AT-PD1, maresin 1(MaR1), MaR2, plus 4 fatty acid substrates can be detected with a lower limit of detection of 1 pg.
To investigate if Bacillus megaterium is capable of producing other PUFA oxygenation products in addition to 18-HEPE, a lipidometabolomics screening of supernatants from Bacillus megaterium strain 32963 cultured as in example 4 with AvailOm® was performed, either dissolved or in a dispersion formulation, with or without bile acids. Cell-free preparations of AvailOm® formulations were treated and analyzed in parallel and served as controls for non-enzymatic, spontaneous formation of oxygenation products. Values given in table 6 display net concentrations of products formed, i.e. after subtraction of control values. […] Concentrations of several SPM exceed by far the concentrations of SPM found in human plasma samples, which are typically in a range of ˜20-100 pg/ml. For comparison, human breast milk contains ˜6.000 pg/ml RvE1 and ˜10.000 pg/ml RvD1 [42].

Assay [2] relates to Bacillus megaterium DSM 33296 cells. The experiment in a line: Lipidometabolomics of culture supernatants with AvailOm dispersion formulation. Particulars: Bacillus megaterium DSM 33296, AvailOm dispersion formulation; net concentration.
Description: as §1
(§2) 47 additional Bacillus megaterium strains sourced from various habitats were screened for their SPM production capacity to determine if this is a general phenomenon of the species Bacillus megaterium and to detect strain-specific differences in types and quantities of SPM being produced. Cells were cultured as detailed in example 4, with dispersion formulation of AvailOm® serving as omega-3 fatty acid source. Cell-free preparations of AvailOm® were treated and analyzed in parallel and served as controls for non-enzymatic, spontaneous formation of oxygenation products. It was observed that all tested strains produced measurable (>1 pg/ml) amounts of various SPM and precursors thereof, that these amounts were hugely different between the strains (up to 2.000 fold), and that concentrations of RvE3 were particularly high (up to 1.3 μg/ml) in most of the strains.
(§3) Values given in table 7 display net concentrations of PUFA oxygenation products formed by two of the top performing strains, Bacillus megaterium DSM 33296 and Bacillus megaterium DSM 33299.

Assay [3] has as its system Bacillus megaterium DSM 33299 cells. Described as above. Particulars: Bacillus megaterium DSM 33299, AvailOm dispersion formulation; net concentration.
Description: as §1, §2, §3

The test system of assay [4] is 47 additional Bacillus megaterium strains. The experiment in a line: Screening of 47 additional strains for SPM production from AvailOm dispersion formulation.
Description: as §1
47 additional Bacillus megaterium strains sourced from various habitats were screened for their SPM production capacity to determine if this is a general phenomenon of the species Bacillus megaterium and to detect strain-specific differences in types and quantities of SPM being produced. Cells were cultured as detailed in example 4, with dispersion formulation of AvailOm® serving as omega-3 fatty acid source. Cell-free preparations of AvailOm® were treated and analyzed in parallel and served as controls for non-enzymatic, spontaneous formation of oxygenation products. […]

In the case of `CC[C@H](O)C(O)/C=C/C=C/C=C\C/C=C\C/C=C\CCCC(=O)O` (stereo partly drawn) [RvE3, resolvin E3], the figures for the “Extracellular concentration of PUFA oxygenation product” value (from here on “Extracellular concentration”) in assay [1] (AvailOm dispersion), in assay [2] and in assay [3] were 33092 pg/mL, 1322555 pg/mL and 880739 pg/mL, respectively. The “concentration produced, highest among the strains” value in assay [4] is on record as “up to 1.3 μg/ml”.

In the case of “12-hydroxy-eicosapentaenoic acid [12-HEPE]”, in assay [1], the “abundance with dispersion formulation and/or bile acids compared to AvailOm without both (in words)” value is given as “lower”. For the same compound, the “Extracellular concentration” value in assay [1] (AvailOm) came out at 4413 pg/mL; in assay [2] it was 124701 pg/mL; in assay [3], 79699 pg/mL.

Take “11-hydroxy-eicosapentaenoic acid [11-HEPE]”: in assay [1], the “abundance with dispersion formulation and/or bile acids compared to AvailOm without both (in words)” value is given as “lower”. Moreover, the “Extracellular concentration” value in assay [1] (AvailOm) was found to be 4659 pg/mL; in assay [2] it was 124860 pg/mL; in assay [3], 63306 pg/mL.

Turning to `CC/C=C\CC(O)/C=C/C=C\C/C=C\C/C=C\CCCC(=O)O` (stereo not drawn) [15-HEPE, 15-hydroxy-eicosapentaenoic acid], in assay [1], the “abundance with dispersion formulation and/or bile acids compared to AvailOm without both (in words)” value was “lower”. Further, the “Extracellular concentration” value in assay [1] (AvailOm) was found to be 7536 pg/mL; in assay [2], 256797 pg/mL; in assay [3], 151168 pg/mL.

Take `CC/C=C\C[C@H](O)/C=C/C=C\C=C\C=C\[C@@H](O)[C@@H](O)CCCC(=O)O` [LXA5, lipoxin A5]: the “Extracellular concentration” value in assay [1] (AvailOm dispersion) is 41263 pg/mL; in assay [1] (AvailOm) it was 7767 pg/mL; in assay [2], 4693 pg/mL; in assay [3], 128825 pg/mL.

As for `CC/C=C\C[C@H](O)/C=C/C=C\C=C\[C@@H](O)C/C=C\C/C=C\CCC(=O)O` [PDX 1], the “Extracellular concentration” value stood at 19542 pg/mL in assay [1] (AvailOm dispersion), 109 pg/mL in assay [1] (AvailOm), 78345 pg/mL in assay [2] and 138918 pg/mL in assay [3].
